SMILES	melting point [°C]
Cc1cccc(-c2[nH]c(C(C)C)nc2-c2ccc(F)c(-c3cc[nH]c3)c2)n1	106 to 110
O=[N+]([O-])c1c(O)c(O)cc2cc(N=Nc3ccccc3)ccc12	238 to 244
O=S(Cc1ccccn1)c1ccc(F)cc1 (centres undefined)	92 to 94
COc1ccc(C(=O)Sc2ccc(C(=O)O)cc2)cc1C1(C)CCCCC1	216 to 218
CCCCc1oc2ccccc2c1C(=O)NCc1ccc2cc(O)ccc2c1	155 to 156
Cc1ccc(S(=O)(=O)Nc2cccc(Sc3ccccc3)n2)cc1	128 to 130
NC(N)=Nc1nc(-c2csc(CNC(=O)CSCc3ccco3)n2)cs1	204
O=C(Nc1cc(O)c(Cl)cc1F)OCc1ccccc1	70 to 72
[N-]=[N+]=Nc1nc(NC(=O)c2ccccc2)nc2c1ncn2CC(O)CF (racemic)	198
CC(=O)SCCC(=O)OC(=O)CO	150 to 157
CCCCC1(SCC)CCC2C3CCC4=CC(=O)C=CC4(C)C3(F)C(O)CC21C (centres undefined)	185 to 187
CCOC(=O)CN[C@@H](c1ccccc1)[C@H](O)c1ccccc1	126 to 127
COC(=O)N1Cc2c(-c3ccc(F)cc3)ncn2-c2ccccc21	156 to 160
COC1=CC2=CCC3C(C(F)CC4(C)C(=O)CCC34)C2CC1 (centres undefined)	173
CCOC(=O)C(C)(C)c1ccc(Br)c([N+](=O)[O-])c1	42 to 45
COc1nccnc1C1(Cl)CN2CCC1CC2 (centres undefined)	59 to 60
CC(=NOCCO)c1ccc(-c2ccc3c(c2)OCO3)cc1	132 to 134
COc1ccc(C(Cl)=NO)cc1	87.5 to 89.5
CS(=O)(=O)N1CCN([C@@H](CNC(=O)c2ccc(OCc3cccc4ccccc34)cc2)C(=O)NO)CC1	170
COC(=O)CCC1(CCC(=O)OC)c2cc(N(c3ccccc3)c3cccc(C)c3)ccc2-c2ccc(N(c3ccccc3)c3cccc(C)c3)cc21	159 to 160
O=[N+]([O-])c1ccc(OCc2ccccc2)cc1Cl	82 to 84.5
Cc1cc2ncc(-c3cccc(-c4ccccc4C#N)c3)n2cn1	119
COc1cc(C(F)(F)F)cc(OC)n1	26 to 27
O=C1NC(=O)C(c2cn(CCCO)c3ccc(F)cc23)=C1c1cccc(NCC(O)CO)c1 (centres undefined)	118 to 125
N#CCc1cccc2c(-c3ccc(Cl)cc3)onc12	165 to 169
O=c1oc(=O)n(-c2ccccc2)c2ncccc12	196 to 198

SMILES	melting point [°C]
CCCn1c(SC)nc2sccc2c1=O	94 to 96
CNc1ccccc1-c1nc2ncccc2[nH]1	262 to 263
COc1ccc(C(=O)Nc2cc([N+](=O)[O-])ccc2Br)cc1OC	183 to 184
Cn1nc(-c2ccccc2)c2ccc(Cl)nc21	94 to 96
Oc1ccc2cc(Br)ccc2c1-c1c(O)ccc2cc(Br)ccc12	109 to 114
CCN(c1nc(C)cc(-c2ccccc2Cl)n1)c1c(Br)cc(N(C)C)cc1OC	131 to 132
CCOC(=O)C(C#N)=NOS(=O)(=O)c1ccc(C)cc1	84 to 87
COc1nc(CC(=O)OC(C)(C)C)c([N+](=O)[O-])cc1C	71 to 72.5
Oc1cc(O)c2cc(-c3ccc(F)cc3)oc2c1	189 to 190
CC(C)/C=C(/C(=O)O)c1ccc(S(C)(=O)=O)cc1	179 to 182
COc1cc(OC)nc(NC(=O)NS(=O)(=O)Nc2c(C)csc2C)n1	190
COc1nc2ccccc2nc1NC(=O)N1CCN(c2ccccc2F)CC1	142 to 144
COC(=O)c1nc2n(n1)-c1cc(Cl)ccc1N(c1ccc(Cl)cc1Cl)C2	264 to 266
CN1CC(CCCl)Oc2c(ccc3ccccc23)C1=S (centres undefined)	167 to 170
COC1=C(OC)C(=O)C2=C(CCC(CCOc3ccc(C)cc3)CC2)C1=O	56 to 57
Cc1c(CBr)cccc1C(F)(F)C(F)(F)c1ccccc1	67 to 71
COc1ccc(Sc2cc3c(cc2Cl)C=C(C(=O)O)C(C(F)(F)F)O3)cc1 (centres undefined)	239 to 242
N#Cc1c(Cl)ccc(F)c1Cl	69 to 71
NC(=O)C1(c2ccccc2)OC(=O)c2ccccc21 (centres undefined)	225 to 227
O=c1cncc2ccccc2n1	213
NCCCCC(=O)N1CCC(c2[nH]nc3c2C(=O)c2c(NC(=O)NN4CCOCC4)cccc2-3)CC1	103 to 105
CONS(=O)(=O)c1ccc(C)cc1	116 to 117
COc1cc(N)c(Cl)cc1C(=O)NCC1CCN(CCCS(=O)(=O)Cc2ccc(Cl)cc2)CC1	175 to 177
Cc1noc(C)c1S(=O)(=O)n1cnc2cnccc21	130 to 135
Cc1csc(Nc2nc(C(C)(C)C)c(O)c(C(C)(C)C)n2)n1	171 to 173
CCCc1c(OCCCOc2ccc(-c3cocn3)c(OC)c2CCC)ccc2c1OC(C(=O)O)CC2 (centres undefined)	136 to 139

SMILES	melting point [°C]
CNc1nc(C)c(-c2ccnc(Nc3cccc(S(=O)(=O)NCCO)c3)n2)s1	189 to 190
CC(C)(C)C(NC(=O)c1ccc(Cl)cc1)Nc1c(Nc2ccccn2)c(=O)c1=O (centres undefined)	246 to 248
O=C(CCCC(=O)Oc1ccc(C(=O)OCc2ccccc2)cc1)Oc1ccc(C(=O)OCc2ccccc2)cc1	93 to 94
O=C1Nc2cc3c(cc2OC1CCCBr)CCCC3 (centres undefined)	139 to 140
CCCCc1ncc(/C=C(\Cc2cccs2)C(=O)O)n1Cc1cccc(Cl)c1Cl	184 to 185
CC(C)(C)OC(=O)COc1ccc2c3c(ccc2c1)OC(=O)CC3	95 to 96
COc1cc(Cl)cc(C)c1Nc1nc2c(Cl)ccc(C(=C(C)C)C(C)C)c2n1C	166 to 168
CC(C)c1cccc(C(C)C)c1NC(=O)[C@H](C)N(C)C(=O)OC(C)(C)C	108 to 110
CCOC(=O)c1c(SCc2ccc(OC)cc2)[nH]c2cc(Cl)c(F)cc2c1=O	142
COC(=O)NN=C1C(=O)Nc2ccc(C3=NNC(=O)SC3C)cc21 (centres undefined)	201
Cc1cc2c(N=C=S)cccc2cn1	92
Cc1cccc(-c2[nH]c(C(C)C)nc2-c2ccc(F)c(-c3ccc(S(C)(=O)=O)cn3)c2)n1	105 to 108
Cc1c(-c2ccc(F)cc2)n(Cc2ccc(OCCN3CCCCCC3)cc2)c2ccc(O)cc12	181 to 184
Cc1ccccc1Oc1cccc(CCC(=O)O)c1O	106 to 107
CCOC(=O)c1c[nH]c2ccc(Cc3ccccc3)cc12	119 to 121
CON(C)C(=O)Nc1ccc(OCCc2ccc(C(C)(C)C)cc2)cc1	14 to 15
CCN(c1ccc(C(=O)O)cc1)c1cc2c3c(c1)CCCC3(C)CCC2	279 to 280
CC(=O)c1nn(-c2c(Cl)cc(C(F)(F)F)cc2Cl)cc1SC(F)(F)F	89 to 91
CCCCOc1ccc2c(c1)C(N(CCCO)S(C)(=O)=O)CC(C)(C)O2 (centres undefined)	69 to 71
Cc1ccc(C(=S)c2ccc3n2CCCC3C(=O)O)cc1 (centres undefined)	174 to 175
CCCCCCCCCCCCCCCCN(C)S(=O)(=O)c1ccc(Cl)c([N+](=O)[O-])c1	74 to 75
COc1ccc(CCCCNC(=O)C(F)(F)F)cc1S(N)(=O)=O	145 to 147
CCC(C)(Cc1c[nH]c2ccccc12)NC=O (centres undefined)	122 to 124
O=C(OCc1ccccc1)C1CCCc2c1c1ccccc1n2C(=O)c1ccc(Cl)cc1 (centres undefined)	123 to 124
O=C(SC[C@@H](SC(=O)c1ccccc1)C(=O)N1CCC[C@H]1C(=O)O)c1ccccc1	195 to 196
CCOC(=O)c1ccc(C(=O)OCC)nc1	46 to 47

SMILES	melting point [°C]
O=C1Cc2cc3c(cc2CCN1)OCO3	236 to 237
Cc1ccc(S(=O)(=O)OCCOc2ccc(OC(F)(F)F)cc2)cc1	35 to 36
COc1ccc(C(c2ccc(N(C)C)cc2)c2ccc(N(C)C)cc2C(=O)O)cc1 (centres undefined)	185 to 190
CCOC(=O)c1c(N)cc(C(F)(F)F)nc1C(F)(F)F	43 to 45
O=C(Nc1ccc(Br)cc1)Nc1cc(C(F)(F)F)ccc1Oc1ccccc1C(=O)O	229 to 231
O=C(OCCBr)N1CCCSC1=C[N+](=O)[O-]	79 to 81
COc1cc2c(Nc3ccc4c(c3)NCC4)c(C#N)cnc2cc1OCCCc1ccncc1	100 to 105
COc1cc2c(cc1OC)CCN=C2	185 to 187
CCOC(=O)c1csc(C)c1S(=O)(=O)NC(=O)n1nc(OC)n(C)c1=O	176
Cc1cccc2c(Cl)cc(C(F)(F)Cl)nc12	46 to 48
CCN(C(C)=O)c1cccc(-c2ccc3nncn3n2)c1	122 to 127
Nc1nc(N)c(N=O)c(OCC2CCCCC2)n1	254
O=CNCS(=O)(=O)c1ccccc1	106 to 107
COc1cc(OC)c(/C=C/S(=O)(=O)Cc2ccc(OC)c(NC(C)C(=O)O)c2)c(OC)c1 (centres undefined)	176 to 180
CC1(C)Oc2ccc(Br)cc2C(n2ccccc2=O)=C1CN(O)C(N)=O	216
COc1ccccc1CC(=O)c1c(O)c2cccnc2n(-c2ccccc2)c1=O	203 to 205
CCOC(=O)c1c(COC(C)=O)[nH]c(=O)n1C(C)=O	138 to 139
CCCCCn1c(C2=CC(=O)c3ccccc3C2=O)ccc1C1=CC(=O)c2ccccc2C1=O	128
COc1cc2[nH]c(N(C)Cc3cccc(N4CCCC4=O)c3)nc(=O)c2c(OC)c1OC	166
Cc1cc(C(=O)Nc2ccn3cc(-c4ccccc4)nc3n2)ccn1	255 to 257
CCCSc1ccc(C(=O)C(=O)OCC)[nH]1	34
COC(=O)c1ccc(C(=O)CCC(=O)c2ccc3c(c2)C(C)(C)CCC3(C)C)cc1	126 to 129
CCC(C)(C)Nc1c(NCc2ccc(F)cc2)c(=O)c1=O	255 to 257
CC(C)Cc1csc2[nH]c(=O)c(=O)[nH]c12	> 270
NC(=O)c1ccc(NC(=O)CCc2cnoc2-c2ccccc2)cc1	250 to 251
COc1cc(/C(C#N)=C/c2ccc(Cl)c([N+](=O)[O-])c2)cc(OC)c1OC	198 to 199

Source: a melting point compilation (Tetko et al.; mined from patent text by program, amines drawn as free bases though some values may be those of a salt)
